In test [1] the test system is constitutive active Wnt pathway (HCT116 TOPFlash). The test can be described thus: Cellular reporter assay, HCT116 Super TopFlash (constitutive active Wnt pathway). It is filed as cell-based. Conditions: Homo sapiens, HCT-116; HCT116 stably transfected with Super TopFlash vector; 36 hours incubation; luciferase expression. The protocol: In order to discover and characterize small molecules which inhibit the constitutive active colorectal cancer cell (CRC) Wnt pathway, a cellular reporter assay was employed. The corresponding assay cell was generated by transfection of the colorectal cancer cell line HCT116 (ATCC, #CCL-247) with the Super TopFlash vector (Morin, Science 275, 1997, 1787-1790; Molenaar et al., Cell 86 (3), 1996, 391-399). The HCT116 cell line is cultivated at 37° C. and 5% CO2 in DMEM/F-12 (Life Technologies, #11320-074), supplemented with 2 mM glutamine, 20 mM HEPES, 1.4 mM pyruvate, 0.15% Na-bicarbonate and 10% foetal bovine serum (GIBCO, #10270), this cancer cell line is pathophysiological relevant since it carries a deletion of position S45 in the β-catenin gene, leading to constitutive active Wnt signaling. Stable transfectants were generated by cotransfection with pcDNA3 and selection of stable transfected cells with 1 mg/ml G418.
(§1) In a parallel approach, HCT116 cells were cotransfected with the FOP control vector and pcDNA3. The FOP vector is identical to the TOP construct, but it contains instead of functional TCF elements a randomized, non-functional sequence. For this transfection a stable transfected cell line was generated as well.
(§2) In preparation of the assay, the two cell lines were plated 24 hours before at 10000 cells per well of a 384 micro titre plate (MTP) in 30 μL growth medium. Selective inhibitory activity for small molecules on the mutated Wnt pathway was determined after parallel incubation of both (TOP and FOP) HCT116 reporter cell lines with a compound dilution series from 50 μM to 15 nM in steps of 3.16-fold dilutions in CAFTY buffer (130 mM NaCl, 5 mM KCl, 20 mM HEPES, 1 mM MgCl2, 5 mM NaHCO3, pH 7.4) containing 2 mM Ca^2+ and 0.01% BSA. The compounds were thereby serially prediluted in 100% DMSO and thereafter in addition 50 fold into the CAFTY compound dilution buffer (described above). From this dilution 10 μL were added to the cells in 30 μL growth medium and incubated for 36 hours at 37° C. and 5% CO2. Thereafter luciferase assay buffer (1:1 mixture of luciferase substrate buffer (20 mM Tricine, 2.67 mM MgSO4, 0.1 mM EDTA, 4 mM DTT, 270 μM Coenzyme A, 470 μM Luciferin, 530 μM ATP, ph adjusted to pH 7.8 with a sufficient volume of 5M NaOH) and Triton buffer (30 mL Triton X-100, 115 mL glycerol, 308 mg Dithiothreitol, 4.45 g Na2HPO4.2H2O, 3.03 g TRIS HCl, ad 1 l H20, pH 7.8) was added as equal volume to the compound solution on the cells to determine luciferase expression as a measure of Wnt signaling activity in a luminometer.
(In general: A reporter such as luciferase makes a cellular process visible.)

Test [2] relates to HCT116 FOPFlash (FOP control vector, non-functional TCF elements). The test can be described thus: Cellular control reporter assay, HCT116 FOP control vector. It is filed as cell-based. Conditions: Homo sapiens, HCT-116; HCT116 stably transfected with FOP control vector; 36 hours incubation; luciferase expression; dilution series from 50 μM. How it is done:
as §1, §2

Structures are written as SMILES.

This is an account of results in patent US20170114070A1, “INHIBITORS OF THE WNT SIGNALLING PATHWAYS” (Bayer Pharma Aktiengesellschaft, priority 2014, published 2017).

For orientation: IC50 means the concentration that gives 50% inhibition. Lower therefore signals higher potency. `CN1CCN(CC(=O)Nc2cc(C(=O)Nc3cnc(-c4cc(F)cc(F)c4)cn3)ccc2OC(F)(F)F)CC1` [Example 43, N-[5-(3,5-difluorophenyl)pyrazin-2-yl]-3-{[(4-methylpiperazin-1-yl)acetyl]amino}-4-(trifluoromethoxy)benzamide]: the IC50 in test [1] came to 0.155 µM; in test [2], 27.6 µM.

Regarding `CN1CCN(CC(=O)Nc2cc(C(=O)Nc3ccc(-c4cccnc4)nn3)ccc2OC(F)(F)F)CC1` [Example 4, 3-{[(4-methylpiperazin-1-yl)acetyl]amino}-N-[6-(pyridin-3-yl)pyridazin-3-yl]-4-(trifluoromethoxy)benzamide], the results for the IC50 in test [1] and in test [2] were 0.0175 µM and at least 50 µM, respectively.

Regarding `O=C(CN1CCOCC1)Nc1cc(C(=O)Nc2ncc(-c3ccccc3)cn2)ccc1OC1CC1` [Example 34, 4-(cyclopropyloxy)-3-[(morpholin-4-ylacetyl)amino]-N-(5-phenylpyrimidin-2-yl)benzamide], the IC50 was 12.6 µM in test [1] and at least 50 µM in test [2].

Turning to `O=C(CN1CCOCC1)Nc1cc(C(=O)Nc2cnc(-c3cnccn3)cn2)ccc1OC(F)(F)F` [Example 57, N-(2,2′-bipyrazin-5-yl)-3-[(morpholin-4-ylacetyl)amino]-4-(trifluoromethoxy)benzamide], the IC50 in test [1] is 2.4 µM; in test [2] it was at least 50 µM.

Turning to `CN1CCN(CC(=O)Nc2cc(C(=O)Nc3ccc(-c4cccnc4F)nn3)ccc2OC(F)(F)F)CC1` [Example 12, N-[6-(2-fluoropyridin-3-yl)pyridazin-3-yl]-3-{[(4-methylpiperazin-1-yl)acetyl]amino}-4-(trifluoromethoxy)benzamide], the IC50 in test [1] was 0.12 µM; in test [2] it was at least 50 µM.

`Cc1ccccc1-c1cnc(NC(=O)c2ccc(OC(F)(F)F)c(NC(=O)CN3CCN(C)CC3)c2)cn1` [Example 42, N-[5-(2-methylphenyl)pyrazin-2-yl]-3-{[(4-methylpiperazin-1-yl)acetyl]amino}-4-(trifluoromethoxy)benzamide]: the figures for the IC50 in test [1] and in test [2] were 0.12 µM and at least 50 µM, respectively.

With `CN1CCN(CC(=O)Nc2cc(C(=O)Nc3cnc(-c4ccccn4)cn3)ccc2OC(F)(F)F)CC1` [Example 40, 3-{[(4-methylpiperazin-1-yl)acetyl]amino}-N-[5-(pyridin-2-yl)pyrazin-2-yl]-4-(trifluoromethoxy)benzamide], the IC50 in test [1] was 0.153 µM; in test [2], at least 50 µM.

Turning to `O=C(Nc1ccc([N+](=O)[O-])cc1Cl)c1cc(Cl)ccc1O` [Ref., niclosamide, reference compound], the IC50 in test [2] was determined as 3.1 µM.

Turning to `CN1CCN(CC(=O)Nc2cc(C(=O)Nc3cnc(-c4ccncc4)cn3)ccc2OC(F)(F)F)CC1` [Example 28, 3-{[(4-methylpiperazin-1-yl)acetyl]amino}-N-[5-(pyridin-4-yl)pyrazin-2-yl]-4-(trifluoromethoxy)benzamide], the results for the IC50 in test [1] and in test [2] were 0.064 µM and at least 50 µM, respectively.

Regarding `Nc1ccc(-c2cnc(NC(=O)c3ccc(OC(F)(F)F)c(NC(=O)CN4CCOCC4)c3)cn2)cn1` [Example 46, N-[5-(6-aminopyridin-3-yl)pyrazin-2-yl]-3-[(morpholin-4-ylacetyl)amino]-4-(trifluoromethoxy)benzamide], the IC50 in test [1] was 16.8 µM; in test [2], at least 50 µM.

For `O=C(CN1CCOCC1)Nc1cc(C(=O)Nc2ccc(-c3ccccc3)nn2)ccc1OC(F)(F)F` [Example 7, 3-[(morpholin-4-ylacetyl)amino]-N-(6-phenylpyridazin-3-yl)-4-(trifluoromethoxy)benzamide], the results for the IC50 in test [1] and in test [2] were 0.02 µM and at least 50 µM, respectively.

As to `Cc1ccncc1-c1cnc(NC(=O)c2ccc(OC(F)(F)F)c(NC(=O)CN3CCOCC3)c2)cn1` [Example 45, N-[5-(4-methylpyridin-3-yl)pyrazin-2-yl]-3-[(morpholin-4-ylacetyl)amino]-4-(trifluoromethoxy)benzamide], the IC50 in test [1] is 16.7 µM; in test [2], at least 50 µM.

On to `Nc1cc(-c2cnc(NC(=O)c3ccc(OC(F)(F)F)c(NC(=O)CN4CCOCC4)c3)cn2)ccn1` [Example 55, N-[5-(2-aminopyridin-4-yl)pyrazin-2-yl]-3-[(morpholin-4-ylacetyl)amino]-4-(trifluoromethoxy)benzamide], for which the IC50 in test [1] was 17.2 µM; in test [2] it was 26.2 µM.

As for `CN1CCN(CC(=O)Nc2cc(C(=O)Nc3cnc(-c4ccccc4Cl)cn3)ccc2OC(F)(F)F)CC1` [Example 44, N-[5-(2-chlorophenyl)pyrazin-2-yl]-3-{[(4-methylpiperazin-1-yl)acetyl]amino}-4-(trifluoromethoxy)benzamide], the half-maximal inhibitory concentration (IC50) in test [1] is 16.8 µM; in test [2] it was at least 50 µM.

Turning to `O=C(CN1CCOCC1)Nc1cc(C(=O)Nc2cnc(-c3ccccn3)cn2)ccc1OC1CC1` [Example 50, 4-(cyclopropyloxy)-3-[(morpholin-4-ylacetyl)amino]-N-[5-(pyridin-2-yl)pyrazin-2-yl]benzamide], the 50% inhibitory concentration (IC50) in test [1] is 16.9 µM; in test [2], at least 50 µM.

Regarding `Nc1ncc(-c2ccc(NC(=O)c3ccc(OC(F)(F)F)c(NC(=O)CN4CCOCC4)c3)nn2)cn1` [Example 13, N-[6-(2-aminopyrimidin-5-yl)pyridazin-3-yl]-3-[(morpholin-4-ylacetyl)amino]-4-(trifluoromethoxy)benzamide], the IC50 in test [1] was 0.0672 µM; in test [2], at least 50 µM.

Consider `CN1CCN(CC(=O)Nc2cc(C(=O)Nc3cnc(-c4cccnc4)cn3)ccc2OC(F)(F)F)CC1` [Example 22, 3-{[(4-methylpiperazin-1-yl)acetyl]amino}-N-[5-(pyridin-3-yl)pyrazin-2-yl]-4-(trifluoromethoxy)benzamide], for which the figures for the IC50 in test [1] and in test [2] were 0.017 µM and 38 µM, respectively.

Take `Cc1cccc(F)c1-c1cnc(NC(=O)c2ccc(OC(F)(F)F)c(NC(=O)CN3CCN(C)CC3)c2)cn1` [Example 29, N-[5-(2-fluoro-6-methylphenyl)pyrazin-2-yl]-3-{[(4-methylpiperazin-1-yl)acetyl]amino}-4-(trifluoromethoxy)benzamide]: the IC50 in test [1] is 16.7 µM; in test [2], at least 50 µM.

Turning to `O=C(CN1C[C@@H]2C[C@H]1CO2)Nc1cc(C(=O)Nc2ccc(-c3ccccc3)nn2)ccc1OC(F)(F)F` [Example 8, 3-{[(1S,4S)-2-oxa-5-azabicyclo[2.2.1]hept-5-ylacetyl]amino}-N-(6-phenylpyridazin-3-yl)-4-(trifluoromethoxy)benzamide], the IC50 in test [1] is 0.125 µM; in test [2] it was at least 50 µM.

Regarding `O=C(CN1CCOCC1)Nc1cc(C(=O)Nc2cnc(-c3ccccc3)cn2)ccc1OC1CC1` [Example 38, 4-(cyclopropyloxy)-3-[(morpholin-4-ylacetyl)amino]-N-(5-phenylpyrazin-2-yl)benzamide], the concentration for half-maximal inhibition (IC50) in test [1] is 0.123 µM; in test [2] it was at least 50 µM.

Consider `O=C(CN1CCOCC1)Nc1cc(C(=O)Nc2cnc(-c3ccccc3F)cn2)ccc1OC(F)(F)F` [Example 25, N-[5-(2-fluorophenyl)pyrazin-2-yl]-3-[(morpholin-4-ylacetyl)amino]-4-(trifluoromethoxy)benzamide], for which the IC50 in test [1] was found to be 4.62 µM; in test [2] it was 23.1 µM.

`CN1CCN(CC(=O)Nc2cc(C(=O)Nc3cnc(-c4cnc(N)cn4)cn3)ccc2OC(F)(F)F)CC1` [Example 60, N-(5′-amino-2,2′-bipyrazin-5-yl)-3-{[(4-methylpiperazin-1-yl)acetyl]amino}-4-(trifluoromethoxy)benzamide]: the IC50 in test [1] was 4.1 µM; in test [2], at least 50 µM.

In the case of `CN1CCN(CC(=O)Nc2cc(C(=O)Nc3cnc(-c4ccccc4F)cn3)ccc2OC(F)(F)F)CC1` [Example 41, N-[5-(2-fluorophenyl)pyrazin-2-yl]-3-{[(4-methylpiperazin-1-yl)acetyl]amino}-4-(trifluoromethoxy)benzamide], the IC50 in test [1] was 0.225 µM; in test [2], at least 50 µM.

In turn, `CN1CCN(CC(=O)Nc2cc(C(=O)Nc3cnc(-c4ccc(N)nc4)cn3)ccc2OC(F)(F)F)CC1` [Example 24, N-[5-(6-aminopyridin-3-yl)pyrazin-2-yl]-3-{[(4-methylpiperazin-1-yl)acetyl]amino}-4-(trifluoromethoxy)benzamide] registered a half-maximal inhibitory concentration (IC50) in test [2] of at least 50 µM.
